Experimental data published in ChEMBL document CHEMBL3885881, “DrugMatrix”.

Organism: Rattus norvegicus
Assay: DrugMatrix - Regimen: Daily Repeat
Format: toxicity, organism-based, Sprague-Dawley
Design: regimen Daily Repeat, gender Male, age 6-8 weeks
Conditions: in vivo, po, 30 mg/kg, route oral GAVAGE, dose level Low, vehicle .5 % CMC; for BASOPHIL / EOSINOPHIL / ERYTHROCYTE COUNT / HEMATOCRIT / HEMOGLOBIN / LEUKOCYTE COUNT / LYMPHOCYTE / MEAN CORPUSCULAR HEMOGLOBIN / MEAN CORPUSCULAR HEMOGLOBIN CONCENTRATION / MEAN CORPUSCULAR VOLUME / MONOCYTE / NEUTROPHIL / PLATELET COUNT: tissue Blood; for ALANINE AMINOTRANSFERASE / ALBUMIN / ALKALINE PHOSPHATASE / ASPARTATE AMINOTRANSFERASE / BLOOD UREA NITROGEN / CHLORIDE / CHOLESTEROL / CREATINE PHOSPHOKINASE / CREATININE / GLUCOSE / PHOSPHORUS / POTASSIUM / SODIUM / TOTAL BILIRUBIN / TOTAL PROTEIN: tissue Plasma

Question: Which BASOPHIL (72 h, time 3 day) does the source give for `CCCc1cc(=O)[nH]c(=S)[nH]1` [PROPYLTHIOURACIL] here?
Answer: 0%

Question: What about the EOSINOPHIL (72 h, time 3 day) of the same compound?
Answer: 0.67%

Question: And the “ERYTHROCYTE COUNT” value (72 h, time 3 day)?
Answer: 5.84 x10E6/uL

Question: And the HEMATOCRIT (72 h, time 3 day)?
Answer: 36.23%

Question: And the HEMOGLOBIN (72 h, time 3 day)?
Answer: 14.13 G/DL

Question: And the “LEUKOCYTE COUNT” value (72 h, time 3 day)?
Answer: 20.27 x10E3/uL

Question: What about the LYMPHOCYTE (72 h, time 3 day) of the same compound?
Answer: 89.33%

Question: And the “MEAN CORPUSCULAR HEMOGLOBIN” value (72 h, time 3 day)?
Answer: 24.23 pg

Question: What about the “MEAN CORPUSCULAR HEMOGLOBIN CONCENTRATION” value (72 h, time 3 day) of the same compound?
Answer: 39 G/DL

Question: What about the “MEAN CORPUSCULAR VOLUME” value (72 h, time 3 day) of the same compound?
Answer: 62.03 fL

Question: What about the MONOCYTE (72 h, time 3 day) of the same compound?
Answer: 2%

Question: And the NEUTROPHIL (72 h, time 3 day)?
Answer: 8%

Question: What about the “PLATELET COUNT” value (72 h, time 3 day) of the same compound?
Answer: 1163.33 x10E3/uL

Question: And the “ALANINE AMINOTRANSFERASE” value (72 h, time 3 day)?
Answer: 44 u/L

Question: And the ALBUMIN (72 h, time 3 day)?
Answer: 3.73 G/DL

Question: What about the “ALKALINE PHOSPHATASE” value (72 h, time 3 day) of the same compound?
Answer: 305.67 u/L

Question: And the “ASPARTATE AMINOTRANSFERASE” value (72 h, time 3 day)?
Answer: 56 u/L

Question: What about the “BLOOD UREA NITROGEN” value (72 h, time 3 day) of the same compound?
Answer: 11 mg/dL

Question: And the CHLORIDE (72 h, time 3 day)?
Answer: 106.33 MEQ/L

Question: What about the CHOLESTEROL (72 h, time 3 day) of the same compound?
Answer: 78 mg/dL

Question: And the “CREATINE PHOSPHOKINASE” value (72 h, time 3 day)?
Answer: 125.67 u/L

Question: And the CREATININE (72 h, time 3 day)?
Answer: 0.47 mg/dL

Question: And the GLUCOSE (72 h, time 3 day)?
Answer: 167.33 mg/dL

Question: What about the PHOSPHORUS (72 h, time 3 day) of the same compound?
Answer: 11 mg/dL

Question: What about the POTASSIUM (72 h, time 3 day) of the same compound?
Answer: 6.5 MEQ/L

Question: What about the SODIUM (72 h, time 3 day) of the same compound?
Answer: 152 MEQ/L

Question: What about the “TOTAL BILIRUBIN” value (72 h, time 3 day) of the same compound?
Answer: 0.3 mg/dL

Question: What about the “TOTAL PROTEIN” value (72 h, time 3 day) of the same compound?
Answer: 5.9 G/DL

Question: What about the BASOPHIL (120 h, time 5 day) of the same compound?
Answer: 0%

Question: What about the EOSINOPHIL (120 h, time 5 day) of the same compound?
Answer: 0%

Question: What about the “ERYTHROCYTE COUNT” value (120 h, time 5 day) of the same compound?
Answer: 6.26 x10E6/uL

Question: And the HEMATOCRIT (120 h, time 5 day)?
Answer: 37.07%

Question: And the HEMOGLOBIN (120 h, time 5 day)?
Answer: 14.77 G/DL

Question: And the “LEUKOCYTE COUNT” value (120 h, time 5 day)?
Answer: 11.7 x10E3/uL

Question: And the LYMPHOCYTE (120 h, time 5 day)?
Answer: 87%

Question: What about the “MEAN CORPUSCULAR HEMOGLOBIN” value (120 h, time 5 day) of the same compound?
Answer: 23.6 pg

Question: And the “MEAN CORPUSCULAR HEMOGLOBIN CONCENTRATION” value (120 h, time 5 day)?
Answer: 39.83 G/DL

Question: What about the “MEAN CORPUSCULAR VOLUME” value (120 h, time 5 day) of the same compound?
Answer: 59.2 fL

Question: What about the MONOCYTE (120 h, time 5 day) of the same compound?
Answer: 1.67%

Question: And the NEUTROPHIL (120 h, time 5 day)?
Answer: 11.33%

Question: What about the “PLATELET COUNT” value (120 h, time 5 day) of the same compound?
Answer: 1185.67 x10E3/uL

Question: What about the “ALANINE AMINOTRANSFERASE” value (120 h, time 5 day) of the same compound?
Answer: 32.67 u/L

Question: And the ALBUMIN (120 h, time 5 day)?
Answer: 3.53 G/DL

Question: What about the “ALKALINE PHOSPHATASE” value (120 h, time 5 day) of the same compound?
Answer: 297.33 u/L

Question: What about the “ASPARTATE AMINOTRANSFERASE” value (120 h, time 5 day) of the same compound?
Answer: 51.67 u/L

Question: And the “BLOOD UREA NITROGEN” value (120 h, time 5 day)?
Answer: 13.33 mg/dL

Question: And the CHLORIDE (120 h, time 5 day)?
Answer: 108.33 MEQ/L

Question: And the CHOLESTEROL (120 h, time 5 day)?
Answer: 68 mg/dL

Question: And the “CREATINE PHOSPHOKINASE” value (120 h, time 5 day)?
Answer: 112 u/L

Question: And the CREATININE (120 h, time 5 day)?
Answer: 0.53 mg/dL

Question: And the GLUCOSE (120 h, time 5 day)?
Answer: 180.33 mg/dL

Question: What about the PHOSPHORUS (120 h, time 5 day) of the same compound?
Answer: 10.03 mg/dL

Question: And the POTASSIUM (120 h, time 5 day)?
Answer: 6.8 MEQ/L

Question: What about the SODIUM (120 h, time 5 day) of the same compound?
Answer: 149 MEQ/L

Question: And the “TOTAL BILIRUBIN” value (120 h, time 5 day)?
Answer: 0.23 mg/dL

Question: What about the “TOTAL PROTEIN” value (120 h, time 5 day) of the same compound?
Answer: 5.7 G/DL
